Peptide text beside a SMILES is read from it.
How the values were obtained:
[1] = blood-brain barrier crossing, anti-TAT immunohistochemistry on coronal brain sections; format: in vivo; settings: C57BL/6 mice, intraperitoneal injection 3 nmoles/g, 24 hours
Method: For the immunohistochemistry analyses, mice treated with the peptide were anaesthetized deeply and subjected to transcardial perfusion with 4% paraformaldehyde (prepared in PBS, pH 7.2-7.4), through the use of a peristaltic pump. The fixing liquid was inserted into the blood circulation through the left ventricle and after 10 minutes the brain was isolated. The sample was then post-fixed for 1 hour and 30 minutes at 4°C, then washed with PBS 1X and placed o/n in a 30% sucrose solution. The following day the sample was washed again with PBS 1X cut with the vibratome obtaining coronal sections of 50µm. Then the sections were stained through free-floating immunofluorescence technique. The fluorescence images were acquired using the Zeiss Confocal LSM510 Meta system with 63x objective at a resolution of 1024x1024 pixels. […]
The coronal sections were incubated with a specific antibody for the identification of the MAP2 neurons, and an antibody able to recognize the TAT sequence of HIV-1 present in the CPPs. As shown by the arrows in Figure 6, the presence of a specific signal of the anti-TAT antibody can be identified, which can only be detected in the coronal sections of brain of animals treated with CPPs. […] In the brain of animals only treated with saline solution (Figure 6, panel A), such signal cannot be detected.

[2] = test system: T1, ADAM10/AP2 complex (Rattus norvegicus); assay: co-immunoprecipitation of ADAM10 with AP2 (α-adaptin) in acute hippocampal slices; format: cell-based; settings: 10 µM, 30 min
T1 construct: endogenous in cells; host or cells: primary hippocampal neurons of rat embryos, DIV14
T1 sequence (P18484 whole entry): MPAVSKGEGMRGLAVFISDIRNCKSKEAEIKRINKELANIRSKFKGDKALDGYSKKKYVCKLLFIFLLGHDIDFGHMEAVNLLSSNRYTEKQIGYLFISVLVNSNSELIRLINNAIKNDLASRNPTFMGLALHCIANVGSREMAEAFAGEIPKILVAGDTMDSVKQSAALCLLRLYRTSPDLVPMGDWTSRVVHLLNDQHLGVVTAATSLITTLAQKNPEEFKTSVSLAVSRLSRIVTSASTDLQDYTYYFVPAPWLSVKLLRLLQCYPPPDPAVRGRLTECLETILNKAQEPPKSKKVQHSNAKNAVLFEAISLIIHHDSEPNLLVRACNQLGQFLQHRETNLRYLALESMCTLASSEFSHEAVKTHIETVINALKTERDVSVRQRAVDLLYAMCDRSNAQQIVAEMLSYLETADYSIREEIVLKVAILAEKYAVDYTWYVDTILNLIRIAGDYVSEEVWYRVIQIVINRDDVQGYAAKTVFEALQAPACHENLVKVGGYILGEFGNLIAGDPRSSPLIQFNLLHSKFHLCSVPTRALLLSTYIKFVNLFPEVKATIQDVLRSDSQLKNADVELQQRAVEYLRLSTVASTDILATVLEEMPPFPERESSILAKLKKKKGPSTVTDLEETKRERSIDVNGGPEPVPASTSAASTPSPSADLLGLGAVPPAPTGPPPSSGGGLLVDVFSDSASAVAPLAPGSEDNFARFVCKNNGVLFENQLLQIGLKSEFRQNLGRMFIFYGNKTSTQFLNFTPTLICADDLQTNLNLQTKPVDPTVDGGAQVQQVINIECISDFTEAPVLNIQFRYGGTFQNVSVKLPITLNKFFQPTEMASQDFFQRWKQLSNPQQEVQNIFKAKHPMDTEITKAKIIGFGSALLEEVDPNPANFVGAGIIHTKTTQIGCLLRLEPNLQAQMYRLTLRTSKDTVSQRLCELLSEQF
T1 sequence (P62744 whole entry, further chain): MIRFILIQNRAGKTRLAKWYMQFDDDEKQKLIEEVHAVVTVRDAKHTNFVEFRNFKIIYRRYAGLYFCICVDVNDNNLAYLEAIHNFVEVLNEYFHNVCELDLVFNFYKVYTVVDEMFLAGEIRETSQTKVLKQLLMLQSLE
T1 sequence (P84092 whole entry, further chain): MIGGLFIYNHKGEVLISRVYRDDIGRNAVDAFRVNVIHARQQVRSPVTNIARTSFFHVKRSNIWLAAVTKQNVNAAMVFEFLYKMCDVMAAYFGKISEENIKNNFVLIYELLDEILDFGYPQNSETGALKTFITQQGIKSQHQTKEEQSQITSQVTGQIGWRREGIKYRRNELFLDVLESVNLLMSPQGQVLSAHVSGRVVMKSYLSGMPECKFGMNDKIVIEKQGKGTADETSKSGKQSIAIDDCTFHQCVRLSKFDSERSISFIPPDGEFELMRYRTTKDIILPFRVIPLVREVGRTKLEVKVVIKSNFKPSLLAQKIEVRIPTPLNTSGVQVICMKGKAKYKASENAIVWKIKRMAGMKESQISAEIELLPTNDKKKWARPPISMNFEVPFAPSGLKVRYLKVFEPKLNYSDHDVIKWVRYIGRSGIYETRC
T1 sequence (P62944 whole entry, further chain): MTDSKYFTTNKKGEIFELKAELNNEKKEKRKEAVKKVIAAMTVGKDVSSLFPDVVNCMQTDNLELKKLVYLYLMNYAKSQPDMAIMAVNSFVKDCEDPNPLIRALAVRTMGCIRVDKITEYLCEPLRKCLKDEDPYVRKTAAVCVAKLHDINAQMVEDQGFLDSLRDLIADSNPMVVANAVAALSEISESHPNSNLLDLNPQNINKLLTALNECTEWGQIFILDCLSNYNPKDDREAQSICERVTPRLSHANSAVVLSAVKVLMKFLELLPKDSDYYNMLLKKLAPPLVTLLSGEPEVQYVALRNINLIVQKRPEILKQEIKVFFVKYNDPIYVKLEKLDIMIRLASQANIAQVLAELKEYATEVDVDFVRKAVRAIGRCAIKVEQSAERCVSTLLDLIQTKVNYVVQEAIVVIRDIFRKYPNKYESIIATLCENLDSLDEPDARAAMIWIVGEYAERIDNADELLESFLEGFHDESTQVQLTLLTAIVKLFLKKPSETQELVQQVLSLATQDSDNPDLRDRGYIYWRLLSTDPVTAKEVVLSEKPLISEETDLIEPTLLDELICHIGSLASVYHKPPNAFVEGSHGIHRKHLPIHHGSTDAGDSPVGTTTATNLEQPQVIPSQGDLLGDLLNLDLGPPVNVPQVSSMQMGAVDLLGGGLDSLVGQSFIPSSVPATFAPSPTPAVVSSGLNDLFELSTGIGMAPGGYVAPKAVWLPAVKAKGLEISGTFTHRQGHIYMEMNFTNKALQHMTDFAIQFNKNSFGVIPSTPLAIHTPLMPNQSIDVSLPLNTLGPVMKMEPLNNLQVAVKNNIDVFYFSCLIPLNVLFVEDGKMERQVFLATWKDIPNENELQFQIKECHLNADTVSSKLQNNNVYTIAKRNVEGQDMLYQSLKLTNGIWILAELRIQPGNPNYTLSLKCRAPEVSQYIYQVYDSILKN
Method: (§1) The acute hippocampal slices were obtained from rat brain. After carefully removing the meninges, the hippocampus was isolated and dissected using the McIlwain tissue chopper. The hippocampal slices were then transferred into supports containing Krebs buffer, in the presence of a constant flow of 95% O2 and 5% CO2 5% (v/v). The acute slices were kept for 45 min at ambient temperature before proceeding with treatment with the peptide.
(§2) For the treatments of the acute hippocampal slices, all the peptides were diluted in Krebs buffer at a concentration of 10µM. The treatments were performed for 30 minutes and subsequently the sample was immediately frozen.
(§3) For the co-immunoprecipitation experiments, aliquots of 40-100 µg of lysate were incubated at 4°C in RIA 1X buffer (NaCl 200 mM, EDTA 10 mM, Na2HPO4 10 mM, Nonidet P-40, 0.5% and 0.1% SDS) in a final volume of 150 µl with 1-2 µg of antibody. The following day the protein complex A/G (Santa Cruz Biotechnology) was added, conjugated with agarose marbles, and the incubation was continued for 2 hours. After three washes with RIA buffer the samples were loaded onto SDS-PAGE and analysed through Western Blot.
(§4) The quantization of the Western Blot analyses was performed through an image analysis program (ImageLab -BioRad). The levels of proteins were expressed as optical density (OD) related to the different measurements and were normalized on respective tubulin levels.
(§5) The samples were then processed, and the total homogenate was used to evaluate the interaction levels between ADAM10 and the complex AP2. The co-immunoprecipitation experiment (co-IP), performed using an anti-ADAM10 antibody, made it possible to verify that two of the three peptides (PEP2 (SEQ ID NO:2) and PEP3 (SEQ ID NO:1)) were able to interfere with the interaction between ADAM10 and α-adaptin, one of the subunits that constitutes the complex AP2 (Figure 1A).

ADAM10/AP2 complex [3] = molecular target: T2, ADAM10/AP2 complex (Rattus norvegicus, UniProt P62944); assay: as above; format: cell-based; settings: 10 µM, 30 minutes
T2 construct: endogenous in cells; host or cells: primary hippocampal neurons of rat embryos, DIV14
T2 sequence (P18484 whole entry): as the sequence (P18484 whole entry) above
T2 sequence (P62744 whole entry, further chain): as the sequence (P62744 whole entry, further chain) above
T2 sequence (P84092 whole entry, further chain): as the sequence (P84092 whole entry, further chain) above
T2 sequence (P62944 whole entry): as the sequence (P62944 whole entry, further chain) above
Method: as §1, §2, §3, §4, §5

ADAM10/AP2 complex [4] = molecular target: T2, ADAM10/AP2 complex; assay: co-immunoprecipitation of ADAM10 with AP2 subunits in primary cultures of hippocampal neurons; format: cell-based
Method: The primary cultures were prepared from hippocampi of rat embryos as described in [20]. The cultures were grown in media containing Neurobasal (Life Technologies), B27 2% (Life Technologies), GlutaMAX 1% (Life Technologies) and Penicillin/Streptomycin 1% (Pen/Strep; Life Technologies), a 37 °C with 95% humidity and 5% CO2 for 14 days. The cells were treated by diluting the peptides in the complete growth medium, at a final concentration of 1 µM. The treatment was performed for 30 minutes at 37°C, then the neurons were lysed.
as §3, §4
After 30 minutes, the cells were processed and the cell lysate was used for performing the co-IP analyses.

[5] = primary hippocampal neurons DIV 14, 1 µM, 30 minutes

CC(C)C[C@H](NC(=O)[C@H](CCCNC(=N)N)NC(=O)[C@@H]1CCCN1C(=O)[C@H](CCCNC(=N)N)NC(=O)[C@H](CCC(N)=O)NC(=O)[C@H](CCCNC(=N)N)NC(=O)[C@@H]1CCCN1C(=O)[C@@H]1CCCN1C(=O)[C@H](CC(C)C)NC(=O)CNC(=O)[C@H](CO)NC(=O)CNC(=O)CNC(=O)[C@H](CCCNC(=N)N)NC(=O)[C@H](CCCNC(=N)N)NC(=O)[C@H](CCCNC(=N)N)NC(=O)[C@H](CCC(N)=O)NC(=O)[C@H](CCCNC(=N)N)NC(=O)[C@H](CCCNC(=N)N)NC(=O)[C@H](CCCCN)NC(=O)[C@H](CCCCN)NC(=O)[C@H](CCCNC(=N)N)NC(=O)CNC(=O)[C@@H](N)Cc1ccc(O)cc1)C(=O)O [PEP2] (H-YGRKKRRQRRRGGSGLPPRQRPRL-OH)
capacity to cross the blood-brain barrier (BBB) [1]: can cross the BBB and penetrate into the neuron cells | PEP/inPEP ratio of optical density (OD), ADAM10/AP2 complex (α-adaptin) [2]: 41.60 ± 23.86% | reduction of the interaction between ADAM10 and α-adaptin (ADAM10/AP2 complex [3]): 58.4% | PEP/inPEP OD, ADAM10/AP2 complex, µ2 (ADAM10/AP2 complex [4]; primary cultures of neurons, 1µM, 30 min): 52.01 ± 3.77% | reduction in the levels of interaction between ADAM10 and the complex AP2, subunit µ2 (ADAM10/AP2 complex [4]; [5]): 48% | reduction in the levels of interaction between ADAM10 and the complex AP2, subunit α-adaptin (ADAM10/AP2 complex [4]; [5]): 66%

Source: patent EP3727588B1, “ACTIVATOR PEPTIDES OF THE ENZYME ADAM 10 AND RELATED USES IN THE TREATMENT OF ALZHEIMER'S DISEASE” (UNIVERSITA' DEGLI STUDI DI MILANO, priority 2017, dated 2019)
